These results are taken from patent publication US8546608B2, “Proteasome inhibitors and methods of using the same” (Cephalon, Inc., priority 2003, dated 2013).

For experiment [1], the target named is T1, proteasome in Molt-4 cells (human leukemia) (Homo sapiens, UniProt P20618+P28074).
T1 sequence (P28074 60-263): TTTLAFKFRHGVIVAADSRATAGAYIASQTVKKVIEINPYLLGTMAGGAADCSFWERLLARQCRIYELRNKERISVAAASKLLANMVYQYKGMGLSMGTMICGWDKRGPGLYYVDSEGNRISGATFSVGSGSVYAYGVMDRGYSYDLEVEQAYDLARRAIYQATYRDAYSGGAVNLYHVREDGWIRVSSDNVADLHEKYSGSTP
T1 sequence (P20618 29-241): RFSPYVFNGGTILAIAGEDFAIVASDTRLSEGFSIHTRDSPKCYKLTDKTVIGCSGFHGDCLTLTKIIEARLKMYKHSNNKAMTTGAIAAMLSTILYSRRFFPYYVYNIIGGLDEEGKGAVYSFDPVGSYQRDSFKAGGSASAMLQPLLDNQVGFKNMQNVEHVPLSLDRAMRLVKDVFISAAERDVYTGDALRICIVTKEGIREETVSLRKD
In kind it is cell-based. Particulars: assay of Example E, inhibition of MOLT4; read-out: MOLT4 (EC50). The method, then: Cellular Assay for Chymotrypsin-like activity of Proteasome in Molt-4 Cell Line
The chymotrypsin-like activity of proteasome in Molt-4 cells (human leukemia) was assayed according to the following procedure. A brief description of the method was published previously (Harding et al., J. Immunol., 1995, 155, 1767).
Molt-4 cells were washed and resuspended in HEPES-buffered Saline (5.4 mM KCl, 120 mM NaCl, 25 mM Glucose, 1.5 mM MgSO4, 1 mM Na pyruvate, 20 mM Hepes) and plated in 96-well microtiter white plates to a final concentration of 6×10^6 cells/mL. Then various 5× proteasome inhibitor concentrations (or diluted DMSO for controls), prepared from 250×DMSO solutions by diluting 50-fold using HEPES-buffered saline, were added to the plate to a final 1× concentration. After 15 minutes incubation at 37° C., a fluorimetric cell permeable substrate (MeOSuc-FLF-AFC) (methoxysuccinyl-Phe-Leu-Phe-7-amido-4-trifluoromethylcoumarin) purchased from Enzyme Systems Products, catalogue number AFC-88, was added to each well at a final concentration of 25 μM from a stock solution of 20 mM in DMSO. Reaction volumes were 100 μl per well.
The concentration of free AFC was monitored every 1.5 min for 30 min ([…]) on a Polastar Optima, BMG Labtechnologies microplate reader, using an excitation wavelength of 390 nm and emission wavelength of 520 nm. Proteasome activity was determined under conditions in which substrate hydrolysis increased linearly with time and the change in fluorescent signal was proportional to the concentration of free AFC.
Determination of EC50 Values for Proteasome Inhibitors in MOLT-4 Cell Line
Inhibition of chymotrypsin-like activity of proteasome in Molt-4 cells was determined by incubating cells with various concentrations of putative inhibitors for 15 minutes at 37° C. prior to the addition of substrate. Each experimental condition was evaluated in triplicate, and replicate experiments were performed for the inhibitors described herein.

For experiment [2], the target named is T2, 20S Human Erythrocyte Proteasome (HEP) (Homo sapiens, UniProt P20618+P28074).
T2 construct: 20S Human Erythrocyte Proteasome (HEP), purchased from Immatics Biotechnologies Inc; purchased Immatics Biotechnologies Inc., Tübingen, Germany; host or cells: human erythrocytes (natural source)
The experiment in a line: Chymotrypsin-like activity of 20S Human Erythrocyte Proteasome (HEP), IC50 determination. In kind it is biochemical. Particulars: assay of Example C, inhibition of HEP. On the procedure:
Assay for Chymotrypsin-like Activity of 20S Human Erythrocyte Proteasome (HEP)
Proteasome chymotrypsin-like activity of compounds of the invention was assayed according to the following procedure.
In 96-well microtiter plates, 20S Human Erythrocyte Proteasome (HEP), purchased from Immatics Biotechnologies Inc., Tübingen, Germany was plated at 0.2 μg/mL (about 0.6 nM catalytic sites) in 0.04% SDS 20 mM Tris buffer. A fluorimetric substrate Suc-LLVY-AMC (succinyl-Leu-Leu-Val-Tyr-7-amido-4-methylcoumarin), purchased from Sigma Inc., St. Louis, Mo., USA was added to a final concentration of 100 μM from a stock solution of 10 mM in dimethylsulfoxide. Reaction volumes were 100 μl per well. […] Proteasome activity was determined under conditions in which substrate hydrolysis increased linearly with time and the change in fluorescence signal was proportional to the concentration of free AMC.
Determination of IC50 Values for HEP and α-Chymotrypsin Inhibitors
Inhibition of the chymotrypsin-like activity of HEP and of bovine α-chymotrypsin was determined by incubating the enzyme with various concentrations of putative inhibitors for 15 minutes at 37° C. (or room temperature for α-chymotrypsin) prior to the addition of substrate. Each experimental condition was evaluated in triplicate, and replicate experiments were performed for the inhibitors described herein.

As a reminder, the EC50 is the concentration giving half of the maximal effect. A word on the IC50: it is the point on the concentration scale where inhibition reaches its midpoint. The low end stands for higher potency, the high end for lower potency. Regarding `COCCOCCOCC(=O)N[C@@H](CCCNC(=N)N[N+](=O)[O-])C(=O)N[C@@H](CC(C)C)B1O[C@@H]2C[C@@H]3C[C@@H](C3(C)C)[C@]2(C)O1` [D.1.7], the EC50 in experiment [1] fell in the range of 2000 to 10000 nM. The compound also had an IC50 in experiment [2] of less than 100 nM.

As to `CCOC(=O)/C=C/C(=O)N[C@@H](CCCNC(=N)N[N+](=O)[O-])C(=O)N[C@@H](CC(C)C)B1O[C@@H]2C[C@@H]3C[C@@H](C3(C)C)[C@]2(C)O1` [D.1.8, (E)-3-(Ethoxycarbonyl)acrylamide,N-[(1S)-1-[[[(1R)-1-[(3aS,4S,6S,7aR)-hexahydro-3a,5,5-trimethyl-4,6-methano-1,3,2-benzodioxaborol-2-yl]-3-methylbutyl]amino]carbonyl]-4-[[imino(nitroamino)methyl]amino]butyl]], the EC50 in experiment [1] lay in the range of 200 to 2000 nM. The same compound returned an IC50 in experiment [2] of less than 10 nM.

As for `CC(C)C[C@H](NC(=O)[C@H](CCCNC(=N)N[N+](=O)[O-])NC(=O)CCCC1CCN(C)CC1)B1O[C@@H]2C[C@@H]3C[C@@H](C3(C)C)[C@]2(C)O1` [D.1.10, 4-(1-Methyl-piperidin-4-yl)-butanamide,N-[(1S)-1-[[[(1R)-1-[(3aS,4S,6S,7aR)-hexahydro-3a,5,5-trimethyl-4,6-methano-1,3,2-benzodioxaborol-2-yl]-3-methylbutyl]amino]carbonyl]-4-[[imino(nitroamino)methyl]amino]butyl]], in experiment [1], the EC50 fell in the range of 200 to 2000 nM. The same compound yielded an IC50 in experiment [2] of less than 100 nM.

In the case of `CC(=O)NCC(=O)N[C@@H](CCCNC(=N)N[N+](=O)[O-])C(=O)N[C@@H](CC(C)C)B1O[C@@H]2C[C@@H]3C[C@@H](C3(C)C)[C@]2(C)O1` [D.1.11, 2-Acetylamino-acetamide,N-[(1S)-1-[[[(1R)-1-[(3aS,4S,6S,7aR)-hexahydro-3a,5,5-trimethyl-4,6-methano-1,3,2-benzodioxaborol-2-yl]-3-methylbutyl]amino]carbonyl]-4-[[imino(nitroamino)methyl]amino]butyl]], the EC50 in experiment [1] is greater than 10000 nM. The same compound registered a concentration for half-maximal inhibition (IC50) in experiment [2] of less than 100 nM.

Turning to `CC(C)C[C@H](NC(=O)[C@H](CCCNC(=N)N[N+](=O)[O-])NC(=O)CCCCCNS(=O)(=O)c1ccccc1)B1O[C@@H]2C[C@@H]3C[C@@H](C3(C)C)[C@]2(C)O1` [D.1.12, 6-Benzenesulfonylaminohexanamide,N-[(1S)-1-[[[(1R)-1-[(3aS,4S,6S,7aR)-hexahydro-3a,5,5-trimethyl-4,6-methano-1,3,2-benzodioxaborol-2-yl]-3-methylbutyl]amino]carbonyl]-4-[[imino(nitroamino)methyl]amino]butyl]], the EC50 in experiment [1] is 200 to 2000 nM. The IC50 in experiment [2] is less than 10 nM.

`CCS(=O)(=O)NCCCCCCCC(=O)N[C@@H](CCCNC(=N)N[N+](=O)[O-])C(=O)N[C@@H](CC(C)C)B1O[C@@H]2C[C@@H]3C[C@@H](C3(C)C)[C@]2(C)O1` [D.1.13]: the EC50 in experiment [1] lay in the range of 2000 to 10000 nM. For the same compound, in experiment [2], the IC50 was less than 10 nM.

Take `CCS(=O)(=O)NCCCCCC(=O)N[C@@H](CCCNC(=N)N[N+](=O)[O-])C(=O)N[C@@H](CC(C)C)B1O[C@@H]2C[C@@H]3C[C@@H](C3(C)C)[C@]2(C)O1` [D.1.14, 6-(Ethanesulfonylamino)hexanamide,N-[(1S)-1-[[[(1R)-1-[(3aS,4S,6S,7aR)-hexahydro-3a,5,5-trimethyl-4,6-methano-1,3,2-benzodioxaborol-2-yl]-3-methylbutyl]amino]carbonyl]-4-[[imino(nitroamino)methyl]amino]butyl]]: the EC50 in experiment [1] was greater than 10000 nM. Moreover, in experiment [2], the IC50 was less than 100 nM.

For `CC(C)C[C@H](NC(=O)[C@H](CCCNC(=N)N[N+](=O)[O-])NC(=O)CCCCCCCCCN1C(=O)c2ccccc2C1=O)B1O[C@@H]2C[C@@H]3C[C@@H](C3(C)C)[C@]2(C)O1` [D.2, 10-(1,3-Dioxo-1,3-dihydro-isoindol-2-yl)-decanamide, N-[(1S)-1-[[[(1R)-1-[(3aS,4S,6S,7aR)-hexahydro-3a,5,5-trimethyl-4,6-methano-1,3,2-benzodioxaborol-2-yl]-3-methylbutyl]amino]carbonyl]-4-[[imino(nitroamino)methyl]amino]butyl]-;], in experiment [1], the EC50 was less than 200 nM. For the same compound, the IC50 in experiment [2] was less than 10 nM.
